From patent US20220133641A1, “TOPICAL FILM-FORMING SPRAY” (GRACE THERAPEUTICS INC., priority 2015, published 2022) come the findings set out here.

Data set [1] is described as follows: Solubility study for drug saturation in spray vehicle (Example 45). It counts as physicochemical. The procedure: Solubility studies to find out concentration at which the drug is present at saturation levels were performed as follows: The drug (bupivacaine hydrochloride 2, 4, 8, 10,12 & 16 mg) was added to, propylene glycol, oleyl alcohol and menthol in ethanol under stirring and mixing till clear solution is formed. The film-forming polymer in the clear drug solution was added while stirring till polymer dissolves or hydrates completely.

The nature of data set [2]: In-vivo study in healthy rats, drug plasma concentration after 4 sprays. Particulars: rat, topical.
Description: A total of 4 sprays were applied (two sprays on the back and two sprays on the abdominal area of the animal) using a metered dose mechanical spray pump. Blood samples were collected at 15, 30 minutes, 1, 2, 4, 8 and 24 hours. All samples were analyzed using a validated analytical LC-MS method.

Structures can show the parent of a compound that is named as a salt.

As for `CCCCN1CCCCC1C(=O)Nc1c(C)cccc1C` (stereo not shown) [Bupivacaine HCl], the “appearance of drug solution on standing” value in data set [1] (16 mg of drug) was “precipitated out from clear solution after standing”. In addition, the “appearance of drug solution on standing” value in data set [1] (other solutions (2, 4, 8, 10, 12 mg)) was “clear and no precipitate was observed”. Moreover, the “concentration at which drug saturation was achieved” value in data set [1] (propylene glycol, oleyl alcohol, menthol, ethanol, film-forming polymer) is “about 12 mg per spray”. In data set [2] (8 mg strength), the concentration at 0 h is 1 ng/mL, the concentration at 0.25 h was 82 ng/mL, the concentration at 0.5 h came to 119 ng/mL and the concentration at 1 h was determined as 148 ng/mL. For the same compound, in data set [2] (8 mg strength), the concentration at 2 h was found to be 95 ng/mL, the concentration at 4 h is 221 ng/mL, the concentration at 8 h is 147 ng/mL and the concentration at 24 h came out at 55 ng/mL. For the same compound, in data set [2] (12 mg strength), the concentration at 0 h worked out at 0 ng/mL, the concentration at 0.25 h stood at 73 ng/mL, the concentration at 0.5 h was determined as 109 ng/mL and the concentration at 1 h amounted to 249 ng/mL. In data set [2] (12 mg strength), this compound registered a concentration at 2 h of 180 ng/mL, a concentration at 4 h of 270 ng/mL, a concentration at 8 h of 329 ng/mL and a concentration at 24 h of 172 ng/mL.
